The values below come from patent US11241440B2, “Dihydrooxadiazine compounds for treating infections and cancer” (VALORALIA I MÁS D, SL, priority 2016, dated 2022).

One experiment has as its system Aspergillus terreus. Kind of experiment: EUCAST broth dilution antifungal susceptibility test (MIC). Type of experiment: cell-based. Particulars: 100% inhibition, 24 hours at 35° C., dilution range 64 to 0.12 mg/l. The procedure:
(§1) Filamentous fungi and yeasts strains, from clinical origin, were supplied by Microbiology Service from The Princess Hospital, Madrid. They are detailed in Table III. Filamentous fungi and yeast cells suspensions in distilled water was prepared from a culture of 24-48 h, depending on species, in Sabouraud agar. Each suspension was adjusted to a fixed size inoculum of 1-5×10^8 CFU/ml with a spectrophotometer (Ferraro, M J National Committee for Clinical Laboratory Standards. 2000). Antifungal susceptibility tests were developed following the standardized methodology detailed by the European Committee on Antimicrobial Susceptibility Testing (EUCAST) documents 7.2 (method for the determination of broth dilution minimum inhibitory concentrations of antifungal agents for yeasts EDef 7.2) and 9.2 (Method for the determination of broth dilution minimum inhibitory concentrations of antifungal agents for conidia forming foulds). The compound was dissolved in DMSO and diluted with RPMI plates with 2% glucose to pH 7 with MOPS buffer. […] Plates were inoculated with a yeast suspension or filamentous fungal spores (1-5×10^5 cls/ml). The results were evaluated after 24 hours incubation at 35° C. and absorbance reading at 530 nm.
(In general: Broth dilution looks for growth in wells or tubes with falling amounts of substance.)

In the next experiment the test system is Aspergillus flavus. Described as above. Particulars: 100% inhibition, 24 hours at 35° C., dilution range 64 to 0.12 mg/l. It counts as cell-based. The procedure:
as §1

The next experiment has as its system Aspergillus fumigatus. Described as above. Type of experiment: cell-based. Particulars: 100% inhibition, 24 hours at 35° C., dilution range 64 to 0.12 mg/l. As for the experimental part:
as §1

A further experiment deals with Scedosporium prolificans. The description is as above. Type of experiment: cell-based. Particulars: 100% inhibition, 24 hours at 35° C., dilution range 64 to 0.12 mg/l. The procedure: as §1
The test system of a further experiment is A. fumigatus. Particulars: A. fumigatus AFu-001; cited from earlier work. Also: key: I = intermediate activity; S = susceptibility; R = Resistance.
A further experiment relates to S. prolificans. Particulars: S. prolificans SP-003; cited from earlier work.
The test system of a further experiment is A. flavus. Particulars: A. flavus AF-001; cited from earlier work. Also: key: I = intermediate activity; S = susceptibility; R = Resistance.
The subject of a further experiment is C. parapsilosis. Particulars: C. parapsilosis CP-007; cited from earlier work.
A further experiment concerns A. terreus. Particulars: A. terreus ATe-001; cited from earlier work. Also: key: I = intermediate activity; S = susceptibility; R = Resistance.
For Characteristics of the strains: susceptibility class in this document: key: I = intermediate activity; S = susceptibility; R = Resistance.

In the case of `C[C@@H]1[C@H](O)[C@@H](C)/C=C/C=C/C=C/C=C/C=C/C=C/C=C/[C@H](O[C@@H]2O[C@H](C)[C@@H](O)[C@H](N)[C@@H]2O)C[C@@H]2O[C@](O)(C[C@@H](O)C[C@@H](O)[C@H](O)CC[C@@H](O)C[C@@H](O)CC(=O)O[C@H]1C)C[C@H](O)[C@H]2C(=O)O` [Amphotericin B], the “MIC (minimum inhibitory concentration)” value is reported as 2 against Aspergillus terreus, 1 in the experiment with Aspergillus flavus, 0.5 in the experiment with Aspergillus fumigatus and more than 16 against Scedosporium prolificans. Further, the “Characteristics of the strains: susceptibility class” value in the experiment with A. fumigatus is “S”; in the experiment with S. prolificans, “R”; with A. flavus, “I”; with C. parapsilosis, “I”; in the experiment with A. terreus it was “I”.

As for `C[C@@H](c1ncncc1F)[C@](O)(Cn1cncn1)c1ccc(F)cc1F` [Voriconazole], the “MIC (minimum inhibitory concentration)” value against Aspergillus terreus was 0.5; against Aspergillus flavus, 1; in the experiment with Aspergillus fumigatus, 0.5; in the experiment with Scedosporium prolificans, more than 8. Also, the “Characteristics of the strains: susceptibility class” value in the experiment with S. prolificans is “R”.
